Experimental data taken from ChEMBL document CHEMBL3351587, “Revised stereochemistry of ficifolidione and its biological activities against insects and cells” (J Nat Prod, 2015).
Calls of active or inactive are those of the source. The calls are words filed in the database; no cut-off is given here.

What was measured:
Colon 26 [1] = assay: Cytotoxicity against mouse Colon 26 cells after 48 hrs by WST-8 assay; format: functional, cell-based; conditions: Colon 26, 48 h
[2] = Cytotoxicity against human HL60 cells after 48 hrs by WST-8 assay; format: functional, cell-based; conditions: HL-60, 48 h
[3] = Cytotoxicity against Sf9 cells after 48 hrs by WST-8 assay; format: functional, cell-based; conditions: Spodoptera frugiperda, Sf9, 48 h
Vero = assay: Cytotoxicity against african green monkey Vero cells after 48 hrs by WST-8 assay; format: functional, cell-based; conditions: Chlorocebus sabaeus
Spodoptera litura [4] = assay: Insecticidal activity against cutworms assessed as number of weight reduced larvae at 21 ug, po for a day followed by rearing on normal diet measured on day 1 (reference value: 10 no_unit); format: functional
Spodoptera litura [5] = assay: Insecticidal activity against cutworms assessed as growth inhibition at 21 ug, po for a day followed by rearing on normal diet measured up to 7 days; format: functional, organism-based
Spodoptera litura [6] = assay: Insecticidal activity against cutworms at 4 mg/disk by leaf dik assay; format: functional, organism-based
Spodoptera litura [7] = assay: Insecticidal activity against cutworms assessed as number of weight reduced larvae at 21 ug, po for a day followed by rearing on normal diet measured on day 3 (reference value: 10 no_unit); format: functional
HL-60 [8] = assay: Induction of apoptosis in human HL60 cells assessed as DNA fragmentation at 100 uM after 4 to 6 hrs by electrophoresis; format: functional, cell-based
Spodoptera litura [9] = assay: Insecticidal activity against cutworms assessed as number of weight reduced larvae at 21 ug, po for a day followed by rearing on normal diet measured on day 2 (reference value: 10 no_unit); format: functional
Musca domestica = assay: Insecticidal activity against adult housefly at 44 ug/insect administered topically; format: functional, organism-based
Spodoptera litura [10] = assay: Insecticidal activity against cutworms assessed as number of weight reduced larvae at 21 ug, po for a day followed by rearing on normal diet measured on day 5 (reference value: 8.7 no_unit); format: functional
Spodoptera litura [11] = assay: Insecticidal activity against cutworms assessed as number of weight reduced larvae at 21 ug, po for a day followed by rearing on normal diet measured on day 7 (reference value: 6.3 no_unit); format: functional
Spodoptera litura [12] = assay: Insecticidal activity against cutworms assessed as number of weight reduced larvae at 21 ug, po for a day followed by rearing on normal diet measured on day 4 (reference value: 10 no_unit); format: functional
Spodoptera litura [13] = assay: Insecticidal activity against cutworms assessed as number of weight reduced larvae at 21 ug, po for a day followed by rearing on normal diet measured on day 6 (reference value: 6.7 no_unit); format: functional
HL-60 [14] = assay: Induction of apoptosis in human HL60 cells assessed as activation of caspase 3 at 100 uM after 4 to 6 hrs by immunoblotiing; format: functional, cell-based
Culex pipiens [15] = assay: Insecticidal activity against mosquito larvae at 50 uM; format: functional, organism-based
Culex pipiens [16] = assay: Insecticidal activity against mosquito larvae at 1.2 ug/insect administered as injection; format: functional, organism-based
Colon 26 [17] = assay: Cytotoxicity against mouse Colon 26 cells at 100 uM after 48 hrs by WST-8 assay; format: functional, cell-based

| SMILES | IC50 (Colon 26 [1]) | IC50 [2] | IC50 [3] | IC50 (Vero) | Activity (Musca domestica) | Activity (Culex pipiens [15]) | Activity (Culex pipiens [16]) | Activity (Colon 26 [17]) | also measured |
| --- | --- | --- | --- | --- | --- | --- | --- | --- | --- |
| CCC[C@H]1C[C@@]2(CC[C@H]3C[C@@H]2C3(C)C)OC2=C1C(=O)C(C)(C)C(=O)C2(C)C | 12.6 µM | 19.4 µM | 30.1 µM | 14.4 µM |  |  |  |  |  |
| CC(C)C[C@H]1C[C@@]2(CC[C@H]3C[C@@H]2C3(C)C)OC2=C1C(=O)C(C)(C)C(=O)C2(C)C | 8.96 µM | 2.9 µM | 32.1 µM | 12.4 µM | inactive | inactive | inactive |  | Activity (Spodoptera litura [4]): 10; growth inhibition (GI) (Spodoptera litura [5]): Active; Activity (Spodoptera litura [6]): inactive; Activity (Spodoptera litura [7]): 9.7; Activity (HL-60 [8]): Active; Activity (Spodoptera litura [9]): 10; Activity (Spodoptera litura [10]): 8.7; Activity (Spodoptera litura [11]): 7; Activity (Spodoptera litura [12]): 9; Activity (Spodoptera litura [13]): 7.3; Activity (HL-60 [14]): Active |
| CC(C)C[C@@H]1C[C@@]2(CC[C@H]3C[C@@H]2C3(C)C)OC2=C1C(=O)C(C)(C)C(=O)C2(C)C | 13.6 µM | 3.67 µM | 63.5 µM | 8.39 µM | inactive | inactive | inactive |  |  |
| CC1(C)C(=O)CC(=O)C(C)(C)C1=O |  |  |  |  |  |  |  | inactive |  |
| C=C1CC[C@H]2C[C@@H]1C2(C)C |  |  |  |  |  |  |  | inactive |  |
| CCC[C@@H]1C[C@@]2(CC[C@H]3C[C@@H]2C3(C)C)OC2=C1C(=O)C(C)(C)C(=O)C2(C)C | 14.2 µM | 23.5 µM | 99.2 µM | 21.4 µM |  |  |  |  |  |
